Results published in ChEMBL document CHEMBL3045511, “Effects of Two Isoflavonoids, Osajin and Pomiferin, from Maclura pomifera for Growth and Feeding Disruption in Ostrinia nubilalis” (2001).

How the values were obtained:
Assay type in all cases: functional
[1] = test system: Ostrinia nubilalis; assay: Antifeedant activity against Ostrinia nubilalis (European corn borer) larvae assessed as amount of weight gain by the insect at 0.20% of diet dry weight after 5 days relative to control
[2] = test system: Ostrinia nubilalis; assay: Insecticidal activity against Ostrinia nubilalis (European corn borer) larvae assessed as mortality at 0.10 to 0.80% of diet dry weight after 5 days relative to control
[3] = test system: Ostrinia nubilalis; assay: Effect on growth of male Ostrinia nubilalis (European corn borer) larvae assessed as pupal weight at 0.10% of diet dry weight after 6 days relative to control
[4] = test system: Ostrinia nubilalis; assay: Effect on growth of male Ostrinia nubilalis (European corn borer) larvae assessed as adult emergence at 0.001% of diet dry weight after 6 days relative to control
[5] = test system: Ostrinia nubilalis; assay: Antifeedant activity against Ostrinia nubilalis (European corn borer) larvae assessed as feeding rate at 0.60% of diet dry weight after 5 days relative to control
[6] = test system: Ostrinia nubilalis; assay: Effect on growth of female Ostrinia nubilalis (European corn borer) larvae assessed as pupal weight at 0.001% of diet dry weight after 6 days relative to control
[7] = test system: Ostrinia nubilalis; assay: Antifeedant activity against Ostrinia nubilalis (European corn borer) larvae assessed as growth rate at 0.80% of diet dry weight after 5 days relative to control
[8] = test system: Ostrinia nubilalis; assay: Effect on growth of female Ostrinia nubilalis (European corn borer) larvae assessed as adult emergence at 1% of diet dry weight after 6 days relative to control
[9] = test system: Ostrinia nubilalis; assay: Effect on growth of female Ostrinia nubilalis (European corn borer) larvae assessed as pupal weight at 0.01% of diet dry weight after 6 days relative to control
[10] = test system: Ostrinia nubilalis; assay: Antifeedant activity against Ostrinia nubilalis (European corn borer) larvae assessed as amount of food consumed at 0.60% of diet dry weight after 5 days relative to control
[11] = test system: Ostrinia nubilalis; assay: Antifeedant activity against Ostrinia nubilalis (European corn borer) larvae assessed as amount excreted at 0.20% of diet dry weight after 5 days relative to control
[12] = test system: Ostrinia nubilalis; assay: Effect on growth of male Ostrinia nubilalis (European corn borer) larvae assessed as pupal duration at 0.10% of diet dry weight after 6 days relative to control
[13] = test system: Ostrinia nubilalis; assay: Effect on growth of male Ostrinia nubilalis (European corn borer) larvae assessed as larval duration at 0.01% of diet dry weight after 6 days relative to control
[14] = test system: Ostrinia nubilalis; assay: Antifeedant activity against Ostrinia nubilalis (European corn borer) larvae assessed as excretion rate at 0.40% of diet dry weight after 5 days relative to control
[15] = test system: Ostrinia nubilalis; assay: Effect on growth of female Ostrinia nubilalis (European corn borer) larvae assessed as adult emergence at 0.10% of diet dry weight after 6 days relative to control
[16] = test system: Ostrinia nubilalis; assay: Antifeedant activity against Ostrinia nubilalis (European corn borer) larvae assessed as amount of food consumed at 0.40% of diet dry weight after 5 days relative to control
[17] = test system: Ostrinia nubilalis; assay: Antifeedant activity against Ostrinia nubilalis (European corn borer) larvae assessed as excretion rate at 0.10% of diet dry weight after 5 days relative to control
[18] = test system: Ostrinia nubilalis; assay: Antifeedant activity against Ostrinia nubilalis (European corn borer) larvae assessed as growth rate at 0.10% of diet dry weight after 5 days relative to control
[19] = test system: Ostrinia nubilalis; assay: Effect on growth of female Ostrinia nubilalis (European corn borer) larvae assessed as larval duration at 0.001% of diet dry weight after 6 days relative to control
[20] = test system: Ostrinia nubilalis; assay: Antifeedant activity against Ostrinia nubilalis (European corn borer) larvae assessed as amount of food consumed at 0.80% of diet dry weight after 5 days relative to control
[21] = test system: Ostrinia nubilalis; assay: Effect on growth of male Ostrinia nubilalis (European corn borer) larvae assessed as pupal duration at 0.001% of diet dry weight after 6 days relative to control
[22] = test system: Ostrinia nubilalis; assay: Antifeedant activity against Ostrinia nubilalis (European corn borer) larvae assessed as amount of weight gain by the insect at 0.10% of diet dry weight after 5 days relative to control
[23] = test system: Ostrinia nubilalis; assay: Effect on growth of female Ostrinia nubilalis (European corn borer) larvae assessed as pupal duration at 1% of diet dry weight after 6 days relative to control
[24] = test system: Ostrinia nubilalis; assay: Effect on growth of female Ostrinia nubilalis (European corn borer) larvae assessed as larval duration at 1% of diet dry weight after 6 days relative to control
[25] = test system: Ostrinia nubilalis; assay: Antifeedant activity against Ostrinia nubilalis (European corn borer) larvae assessed as excretion rate at 0.60% of diet dry weight after 5 days relative to control
[26] = test system: Ostrinia nubilalis; assay: Effect on growth of female Ostrinia nubilalis (European corn borer) larvae assessed as larval duration at 0.10% of diet dry weight after 6 days relative to control
[27] = test system: Ostrinia nubilalis; assay: Antifeedant activity against Ostrinia nubilalis (European corn borer) larvae assessed as growth rate at 0.40% of diet dry weight after 5 days relative to control
[28] = test system: Ostrinia nubilalis; assay: Antifeedant activity against Ostrinia nubilalis (European corn borer) larvae assessed as amount of food consumed at 0.10% of diet dry weight after 5 days relative to control
[29] = test system: Ostrinia nubilalis; assay: Antifeedant activity against Ostrinia nubilalis (European corn borer) larvae assessed as amount of weight gain by the insect at 0.60% of diet dry weight after 5 days relative to control
[30] = test system: Ostrinia nubilalis; assay: Antifeedant activity against Ostrinia nubilalis (European corn borer) larvae assessed as feeding rate at 0.20% of diet dry weight after 5 days relative to control
[31] = test system: Ostrinia nubilalis; assay: Effect on growth of male Ostrinia nubilalis (European corn borer) larvae assessed as pupal duration at 1% of diet dry weight after 6 days relative to control
[32] = test system: Ostrinia nubilalis; assay: Effect on growth of female Ostrinia nubilalis (European corn borer) larvae assessed as pupal duration at 0.10% of diet dry weight after 6 days relative to control
[33] = test system: Ostrinia nubilalis; assay: Antifeedant activity against Ostrinia nubilalis (European corn borer) larvae assessed as amount excreted at 0.10% of diet dry weight after 5 days relative to control
[34] = test system: Ostrinia nubilalis; assay: Antifeedant activity against Ostrinia nubilalis (European corn borer) larvae assessed as amount of weight gain by the insect at 0.80% of diet dry weight after 5 days relative to control
[35] = test system: Ostrinia nubilalis; assay: Antifeedant activity against Ostrinia nubilalis (European corn borer) larvae assessed as growth rate at 0.60% of diet dry weight after 5 days relative to control
[36] = test system: Ostrinia nubilalis; assay: Effect on growth of male Ostrinia nubilalis (European corn borer) larvae assessed as pupal weight at 1% of diet dry weight after 6 days relative to control
[37] = test system: Ostrinia nubilalis; assay: Antifeedant activity against Ostrinia nubilalis (European corn borer) larvae assessed as excretion rate at 0.80% of diet dry weight after 5 days relative to control
[38] = test system: Ostrinia nubilalis; assay: Antifeedant activity against Ostrinia nubilalis (European corn borer) larvae assessed as amount of weight gain by the insect at 0.40% of diet dry weight after 5 days relative to control
[39] = test system: Ostrinia nubilalis; assay: Effect on growth of female Ostrinia nubilalis (European corn borer) larvae assessed as pupal weight at 1% of diet dry weight after 6 days relative to control
[40] = test system: Ostrinia nubilalis; assay: Effect on growth of male Ostrinia nubilalis (European corn borer) larvae assessed as adult emergence at 1% of diet dry weight after 6 days relative to control
[41] = test system: Ostrinia nubilalis; assay: Antifeedant activity against Ostrinia nubilalis (European corn borer) larvae assessed as amount excreted at 0.60% of diet dry weight after 5 days relative to control
[42] = test system: Ostrinia nubilalis; assay: Effect on growth of male Ostrinia nubilalis (European corn borer) larvae assessed as adult emergence at 0.10% of diet dry weight after 6 days relative to control
[43] = test system: Ostrinia nubilalis; assay: Effect on growth of male Ostrinia nubilalis (European corn borer) larvae assessed as pupal duration at 0.01% of diet dry weight after 6 days relative to control
[44] = test system: Ostrinia nubilalis; assay: Antifeedant activity against Ostrinia nubilalis (European corn borer) larvae assessed as amount of food consumed at 0.20% of diet dry weight after 5 days relative to control
[45] = test system: Ostrinia nubilalis; assay: Effect on growth of male Ostrinia nubilalis (European corn borer) larvae assessed as adult emergence at 0.01% of diet dry weight after 6 days relative to control
[46] = test system: Ostrinia nubilalis; assay: Antifeedant activity against Ostrinia nubilalis (European corn borer) larvae assessed as amount excreted at 0.80% of diet dry weight after 5 days relative to control
[47] = test system: Ostrinia nubilalis; assay: Effect on growth of female Ostrinia nubilalis (European corn borer) larvae assessed as pupal weight at 0.10% of diet dry weight after 6 days relative to control
[48] = test system: Ostrinia nubilalis; assay: Effect on growth of female Ostrinia nubilalis (European corn borer) larvae assessed as pupal duration at 0.001% of diet dry weight after 6 days relative to control
[49] = test system: Ostrinia nubilalis; assay: Antifeedant activity against Ostrinia nubilalis (European corn borer) larvae assessed as feeding rate at 0.80% of diet dry weight after 5 days relative to control
[50] = test system: Ostrinia nubilalis; assay: Antifeedant activity against Ostrinia nubilalis (European corn borer) larvae assessed as excretion rate at 0.20% of diet dry weight after 5 days relative to control
[51] = test system: Ostrinia nubilalis; assay: Effect on growth of male Ostrinia nubilalis (European corn borer) larvae assessed as larval duration at 0.001% of diet dry weight after 6 days relative to control
[52] = test system: Ostrinia nubilalis; assay: Effect on growth of male Ostrinia nubilalis (European corn borer) larvae assessed as pupal weight at 0.001% of diet dry weight after 6 days relative to control
[53] = test system: Ostrinia nubilalis; assay: Effect on growth of female Ostrinia nubilalis (European corn borer) larvae assessed as larval duration at 0.01% of diet dry weight after 6 days relative to control
[54] = test system: Ostrinia nubilalis; assay: Effect on growth of male Ostrinia nubilalis (European corn borer) larvae assessed as larval duration at 0.10% of diet dry weight after 6 days relative to control
[55] = test system: Ostrinia nubilalis; assay: Effect on growth of female Ostrinia nubilalis (European corn borer) larvae assessed as adult emergence at 0.001% of diet dry weight after 6 days relative to control
[56] = test system: Ostrinia nubilalis; assay: Antifeedant activity against Ostrinia nubilalis (European corn borer) larvae assessed as amount excreted at 0.40% of diet dry weight after 5 days relative to control
[57] = test system: Ostrinia nubilalis; assay: Effect on growth of female Ostrinia nubilalis (European corn borer) larvae assessed as adult emergence at 0.01% of diet dry weight after 6 days relative to control
[58] = test system: Ostrinia nubilalis; assay: Effect on growth of female Ostrinia nubilalis (European corn borer) larvae assessed as pupal duration at 0.01% of diet dry weight after 6 days relative to control
[59] = test system: Ostrinia nubilalis; assay: Antifeedant activity against Ostrinia nubilalis (European corn borer) larvae assessed as feeding rate at 0.40% of diet dry weight after 5 days relative to control
[60] = test system: Ostrinia nubilalis; assay: Antifeedant activity against Ostrinia nubilalis (European corn borer) larvae assessed as feeding rate at 0.10% of diet dry weight after 5 days relative to control
[61] = test system: Ostrinia nubilalis; assay: Effect on growth of male Ostrinia nubilalis (European corn borer) larvae assessed as pupal weight at 0.01% of diet dry weight after 6 days relative to control
[62] = test system: Ostrinia nubilalis; assay: Antifeedant activity against Ostrinia nubilalis (European corn borer) larvae assessed as growth rate at 0.20% of diet dry weight after 5 days relative to control
[63] = test system: Ostrinia nubilalis; assay: Effect on growth of male Ostrinia nubilalis (European corn borer) larvae assessed as larval duration at 1% of diet dry weight after 6 days relative to control

SMILES: CC(C)=CCc1c2c(c3occ(-c4ccc(O)c(O)c4)c(=O)c3c1O)C=CC(C)(C)O2 [POMIFERIN]
- Activity [1]: 17.7%
- mortality [2]: <=11%
- Activity [3]: 74 mg
- Activity [4]: 78%
- Activity [5]: 23.2%
- Activity [6]: 85 mg
- Activity [7]: 12%
- Activity [8]: 67%
- Activity [9]: 96 mg
- Activity [10]: 38.5%
- Activity [11]: 8.2%
- Time [12]: 7.5 days
- Time [13]: 10.9 days
- Activity [14]: -12%
- Activity [15]: 67%
- Activity [16]: 34.2%
- Activity [17]: 0%
- Activity [18]: 13.3%
- Time [19]: 11.7 days
- Activity [20]: 40.1%
- Time [21]: 7 days
- Activity [22]: 38.1%
- Time [23]: 6.4 days
- Time [24]: 12.9 days
- Activity [25]: -12%
- Time [26]: 12.1 days
- Activity [27]: 5.3%
- Activity [28]: 33.2%
- Activity [29]: 31.5%
- Activity [30]: 34.6%
- Time [31]: 6.7 days
- Time [32]: 6.3 days
- Activity [33]: 30.4%
- Activity [34]: 36.5%
- Activity [35]: 10%
- Activity [36]: 72 mg
- Activity [37]: -10%
- Activity [38]: 18.2%
- Activity [39]: 109 mg
- Activity [40]: 60%
- Activity [41]: 16.1%
- Activity [42]: 25%
- Time [43]: 7.2 days
- Activity [44]: 36.9%
- Activity [45]: 67%
- Activity [46]: 23%
- Activity [47]: 100 mg
- Time [48]: 6.7 days
- Activity [49]: 20.7%
- Activity [50]: -7%
- Time [51]: 10.7 days
- Activity [52]: 76 mg
- Time [53]: 11.7 days
- Time [54]: 11.1 days
- Activity [55]: 50%
- Activity [56]: 5.4%
- Activity [57]: 54%
- Time [58]: 7 days
- Activity [59]: 29%
- Activity [60]: -1%
- Activity [61]: 72 mg
- Activity [62]: 4.7%
- Time [63]: 11.2 days
